Test results as given in BindingDB's records for doi:10.1021/cb900083m (Genentech, 2009).
pKi: −log10 of the molar value.

Columns and labels:
[1] = Samples for fluorescence polarization affinity measurements were prepared by addition of serial dilutions of […] to each well containing antagonist and polarization probe in the buffer. Samples were read after 30-min incubation. Fluorescence polarization values were plotted as a function of the antagonist concentra; conditions: pH 7.2
[2] = molecular target: T1, Baculoviral IAP repeat-containing protein 2 [269-336] (Homo sapiens, UniProt Q13490); assay: Fluorescence Polarization Affinity Measurements; conditions: pH 7.2; 22 °C
T1 construct: 269-336
Protocol: (§1) Samples for fluorescence polarization affinity measurements were prepared by addition of serial dilutions of […] to each well containing antagonist and polarization probe in the buffer. Samples were read after 30-min incubation. Fluorescence polarization values were plotted as a function of the antagonist concentration, and the IC50 values were obtained by fitting the data to a four-parameter equation using KaleidaGraph software. Ki values for the antagonists were determined from the IC50 values.

[3] = molecular target: T2, Baculoviral IAP repeat-containing protein 3 [255-322] (Homo sapiens, UniProt Q13489); assay: Fluorescence Polarization Affinity Measurements; conditions: pH 7.2; 22 °C
T2 construct: 255-322
Protocol: as §1

T1 sequence (Q13490 269-336): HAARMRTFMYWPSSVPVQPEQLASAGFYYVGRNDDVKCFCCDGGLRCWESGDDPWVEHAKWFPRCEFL
T2 sequence (Q13489 255-322): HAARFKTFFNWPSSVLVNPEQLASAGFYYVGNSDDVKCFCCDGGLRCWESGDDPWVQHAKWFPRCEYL

Row | pKi [1] | pKi [2] | pKi [3] | SMILES
1 | 5.62 | 8.00 | 7.28 | CN[C@@H](C)C(=O)N[C@H](C(=O)N1CC[C@H](C)[C@H]1C(=O)Nc1cc(C)nn1-c1ccccc1)C1CCCCC1 [CS-1]
2 | 5.30 | 7.43 | 6.94 | CN[C@@H](C)C(=O)N[C@H](C(=O)N1CCC[C@H]1C(=O)Nc1ccccc1-c1ncccn1)C1CCCCC1 [CS-2]
3 | 7.48 | 7.44 | 7.02 | CN[C@@H](C)C(=O)N[C@H](C(=O)N1CCC[C@H]1c1nc2c(-c3ccccc3Cl)nccc2s1)C1CCOCC1 [PS-1]
4 | < 4.47 | < 4.47 | < 4.47 | CN[C@H](C)C(=O)N[C@@H](C(=O)N1CCC[C@@H]1c1nc2c(-c3ccccc3Cl)nccc2s1)C1CCOCC1 [ent-PS-1]
